Source: PubChem BioAssay (NCI)
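Tested at 5 concentrations; 48 h exposure; 96-well plates; endpoints linearly interpolated, else capped at highest concentration. At the TGI there is no net growth.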

Columns and labels:
Assay in all cases: growth of human tumour cells (NCI), 48 h
786-0 renal = system: 786-0 renal
A498 renal = system: A498 renal
A549 NSCLC = system: A549 NSCLC
ACHN renal = system: ACHN renal
CAKI-1 renal = system: CAKI-1 renal
CCRF-CEM leukemia = system: CCRF-CEM leukemia
COLO 205 colon = system: COLO 205 colon
DLD-1 colon = system: DLD-1 colon
DMS 273 small cell lung = system: DMS 273 small cell lung
EKVX NSCLC = system: EKVX NSCLC
HCC-2998 colon = system: HCC-2998 colon
HCT-116 colon = system: HCT-116 colon
HL-60(TB) leukemia = system: HL-60(TB) leukemia
HOP-18 NSCLC = system: HOP-18 NSCLC
HOP-62 NSCLC = system: HOP-62 NSCLC
HOP-92 NSCLC = system: HOP-92 NSCLC
HT29 colon = system: HT29 colon
IGROV1 ovarian = system: IGROV1 ovarian
K-562 leukemia = system: K-562 leukemia
KM12 colon = system: KM12 colon
KM20L2 colon = system: KM20L2 colon
LOX IMVI melanoma = system: LOX IMVI melanoma
LXFL 529 NSCLC = system: LXFL 529 NSCLC
M14 melanoma = system: M14 melanoma
M19-MEL melanoma = system: M19-MEL melanoma
MALME-3M melanoma = system: MALME-3M melanoma
MOLT-4 leukemia = system: MOLT-4 leukemia
NCI-H226 lung = system: NCI-H226 lung
NCI-H23 lung = system: NCI-H23 lung
NCI-H460 lung = system: NCI-H460 lung
NCI-H522 lung = system: NCI-H522 lung
OVCAR-3 ovarian = system: OVCAR-3 ovarian
OVCAR-4 ovarian = system: OVCAR-4 ovarian
OVCAR-5 ovarian = system: OVCAR-5 ovarian
OVCAR-8 ovarian = system: OVCAR-8 ovarian
RXF 393 renal = system: RXF 393 renal
SF-268 CNS = system: SF-268 CNS
SF-295 CNS = system: SF-295 CNS
SF-539 CNS = system: SF-539 CNS
SK-MEL-2 melanoma = system: SK-MEL-2 melanoma
SK-MEL-28 melanoma = system: SK-MEL-28 melanoma
SK-MEL-5 melanoma = system: SK-MEL-5 melanoma
SK-OV-3 ovarian = system: SK-OV-3 ovarian
SN12C renal = system: SN12C renal
SNB-19 CNS = system: SNB-19 CNS
SNB-75 CNS = system: SNB-75 CNS
SNB-78 CNS = system: SNB-78 CNS
SR leukemia = system: SR leukemia
SW-620 colon = system: SW-620 colon
TK-10 renal = system: TK-10 renal
U251 CNS = system: U251 CNS
UACC-257 melanoma = system: UACC-257 melanoma
UACC-62 melanoma = system: UACC-62 melanoma
UO-31 renal = system: UO-31 renal
XF 498 CNS = system: XF 498 CNS
DMS 114 small cell lung = system: DMS 114 small cell lung
HCT-15 colon = system: HCT-15 colon
RPMI-8226 leukemia = system: RPMI-8226 leukemia

Measured: TGI

O=C1CC(S(=O)(=O)O)C=C1Nc1cccc(Cl)c1 (stereo not given)
not listed: DMS 114 small cell lung | HCT-15 colon | RPMI-8226 leukemia
> 100 µM: all other assays above

COc1cc2cc[n+]3c(C)c4cc(OC)c(OC)cc4c([O-])c3c2cc1OC
89.9 µM: RXF 393 renal
62.1 µM: DMS 114 small cell lung
72.8 µM: IGROV1 ovarian
24.7 µM: OVCAR-3 ovarian
82.1 µM: XF 498 CNS
48.8 µM: HL-60(TB) leukemia
79.7 µM: MALME-3M melanoma
42 µM: NCI-H522 lung
48.3 µM: COLO 205 colon
not listed: 786-0 renal | HOP-18 NSCLC | LOX IMVI melanoma
> 100 µM: all other assays above
